Legend:
MNK1ΔCt = MNK1ΔCt (Homo sapiens, UniProt Q9BUB5); test: ELONA binding of biotin-labeled aptamer; settings: apMNKQ2-Bio at 20 nM, GST-MNK1ΔCt 0.2 μg/well
Method: FIGS. 5A-5C. Characterization of the interaction of aptamer apMNKQ2 with MNK1 by means of ELONA. (A) ELONAs in which GST-MNKs previously adsorbed in 96-well plates at 0.2 μg/well (3 pmol/well) with apMNKQ2-Bio at 20 nM were incubated (FIG. 5A). The bars represent the mean±SEM of at least 3 independent experiments (*p<0.05, **p<0.01, and ***p<0.001 with respect to the blank and c p<0.05, b p<0.01, and a p<0.001 MNK1b with respect to MNK1a). ELONAs in which concentrations of 0 to 500 nM of apMNKQ2 were incubated (FIGS. 5A and 5C).
To determine the binding of the aptamers to MNK1a or MNK1b, 200 ng of protein/well diluted in a coating solution (KPL, USA) in a final volume of 100 μL/well were added to a Maxisorp Nunc 96-well ELISA plate (ThermoFisher Scientific, USA). The plate was incubated overnight at 4° C. under stirring. Aptamers were then added at the corresponding concentration according to the assay, in a final volume of 100 μL/well of BSA-free aptamer buffer for 1 hour at 37° C. under stirring. All the aptamers used were labeled with biotin and had been previously denatured at 90° C. for 10 minutes and then kept at 4° C. for 10 minutes in the BSA-free aptamer buffer. To detect the binding of the aptamer to the protein, 100 μL/well of streptavidin-peroxidase (GE Healthcare, United Kingdom) diluted 1/1000 in the aptamer buffer at 37° C. for 1 hour under stirring were added. To develop the plate, 100 μL/well of ABTS solution (Roche, Switzerland) were added, and it was incubated in darkness at room temperature, with measurements being taken every 10 minutes at a wavelength of 405 nm in an Infinite F200 spectrophotometer (TECAN, Switzerland).

caspase 3 = test: Caspase 3 activity by western blot of PARP and α-spectrin fragments; type: cell-based, human; settings: MCF7, MDA-MB-231, and MDA-MB-468 cells, 24 hours post-transfection
From the text: FIGS. 11A & 11B. Effect of apMNKQ2 on caspase 3 activity by means of PARP and α-spectrin substrates in breast cell lines. Immunodetection with specific antibodies by means of 12% SDS-PAGE of “cleaved” PARP (FIG. 11A) and α-spectrin (FIG. 11B) for detecting the proteolytic activity of caspase 3 after the transfection of lines MCF7, MDA-MB-231, and MDA-MB-468 with apMNKQ2 and the control aptamer AT. The activity of this protease gives rise to characteristic proteolysis patterns with specific fragments of 89 kDa for PARP and 150 and 120 kDa for α-spectrin.
Caspase 3 activity was assessed by means of western blot with two endogenous substrates of this protein: • the enzyme poly ADP-ribose (PARP), fractionated in late apoptotic stages, using a specific antibody that only recognizes the PARP fragment processed by caspase 3. • the protein α-spectrin, with an antibody capable of recognizing the complete form and the fragments obtained after being broken down by caspase 3. Colony Formation Assays
Similarly, to verify that apMNKQ2 is capable of increasing apoptosis in the cell lines, the activity of caspase 3, a protease activated in apoptosis, was assessed. The western blot study was performed on two endogenous substrates of caspase 3: the enzyme poly ADP-ribose (PARP), fractionated in late apoptotic stages, and the protein α-spectrin. […]

[1] = tested on: orthotopic xenograft of 4T1 cells; test: In vivo efficacy in metastatic orthotopic 4T1 mouse model; design: species or system BALBc mice; settings: 3.6 mg/kg intravenously three times a week
Method: FIG. 21A-21E. In vivo efficacy of apMNKQ2 in a mouse metastatic model with an orthotopic xenograft of 4T1 cells. (A) Effect of apMNKQ2 aptamer on the proliferation of 4T1 cells (mouse breast tumor line). 4T1 cells were seeded in p96 at a density of 1.5×10^3 cells/well. […] The graph (FIG. 21A) represents the means±SEM of 3 independent experiments. (B) Effect of apMNKQ2 aptamer on migration and invasion of 4T1 cells. Cells were seeded in p6 at a density of 2×10^5 cells/well and transfected with 500 nM apMNKQ2 at 24 hours. At 6 hours they were deprived of serum, and after 24 hours they were collected and re-seeded (4×10^4 cells/well) in a transwell […]. At 24 hours (migration) or 48 h (invasion), the transwell membranes were stained with Hoechst and the cells that had passed through the fluorescence microscopy were quantified. Values (FIG. 21B) represent the mean±SEM of 2-3 independent experiments. In vivo efficacy of apMNKQ2 in a mouse metastatic model with an orthotopic xenograft of 4T1 cells. (C) Evolution of mouse weight on the days of treatment with apMNKQ2 (FIG. 21C). (D) Relative tumor volume (RTV) throughout the days of treatment (FIG. 21D). (E) Number of lung metastases (FIG. 21E). The number of metastases is analyzed by the reverse staining method (with Chinese ink) and the metastases grouped according to their size in four groups (0.5, 1, 2 and >2). The stacked bars correspond to each group and represent the mean±SEM of 8-9 animals (*p<0.05 with respect to the control group).
The anti-tumour activity and the effect on and spontaneous metastasis of aptamers in BALBc mice bearing ortothopically […] 4T1 breast tumours. […] As monitoring parameters, the tumor volume, assuming they are ellipsoids, and the weight of the animals were measured. […]
To study the ability of apMNKQ2 to reduce metastasis in vivo, an orthotopic xenograft model with a murine tumor line of triple negative breast cancer, 4T1, was used. […] First, the effect of apMNKQ2 on 4T1 cells in vitro was analyzed. […]

Sequence of MNK1ΔCt (Q9BUB5 1-335 isoform Q9BUB5-2 limits assumed): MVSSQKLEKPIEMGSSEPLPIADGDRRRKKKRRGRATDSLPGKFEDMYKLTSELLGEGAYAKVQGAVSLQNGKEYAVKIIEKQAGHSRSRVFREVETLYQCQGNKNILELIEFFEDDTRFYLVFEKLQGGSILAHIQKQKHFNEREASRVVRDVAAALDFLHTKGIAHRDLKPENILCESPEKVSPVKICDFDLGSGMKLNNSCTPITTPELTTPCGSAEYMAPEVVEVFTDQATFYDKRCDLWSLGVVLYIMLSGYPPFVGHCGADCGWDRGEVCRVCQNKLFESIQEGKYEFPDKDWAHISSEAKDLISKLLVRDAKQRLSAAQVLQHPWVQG

5′TGGGGTGGGCGGGCGGGGGTGGGGGTGGT-3′ (DNA, backbone and methylation of C not given here; further chemistry not fully specified) [apMNKQ2]
binding (ELONA) (MNK1ΔCt): not significant | caspase 3 activity (proteolysis fragments of PARP and α-spectrin) (caspase 3): apoptotic effect | size of the tumors (relative tumor volume) ([1]; 18 days): does not produce changes | weight of the mice ([1]; 18 days): does not produce changes | number of lung metastasis ([1]; statistically significant for metastasis of 2 mm): decreased
